Tests used:
[1] = tested on: A549 cells of human lung adenocarcinoma; assay: Prevention of tumour development in nude mice injected with A549 cells; assay type: in vivo; conditions: 400 mg/kg per day oral, 2 weeks before and one month after A549 injection, compared with fatty acids not of Formula I, p<0.05
Text: FIG. 2. Preventative effect of various fatty acids against tumour development. […] Animals received treatment before injection of tumour cells and the treatment was subsequently maintained. Animals of the control group were not treated and the volume of their tumours was taken as the reference value (100%).
To determine whether the fatty acids of the invention have applications in the prevention of the development of tumour processes, an animal cancer model was used. This model consisted of immune-deprived animals ([Crl:Nu(Ico)-Fox 1] nude mice in which non-microcytic human lung cancer cells were injected (5×10^6 A549 cells per animal). The control group (infected with cancer cells but untreated) started to develop tumours that were visible after a few days. The sizes of the tumours were measured for the first time at 10 days after implanting the tumour and measurements continued for up to 31 days after the implantation with a digital calliper. The volume of the tumours was calculated with the following equation: v=w^2×l/2 where v is the volume of the tumour, w is its width and l is the length. Preventative treatments against development of the cancer were applied. To carry out these treatments, 400 mg/kg were administered per day for 2 weeks before the injection of tumour cells. This treatment was continued for one month after the implantation of the tumour cells and the volume of the tumours in the animals was measured. Each experimental group was composed of 8 animals. Oral administration of α-derivatives of cis-monounsaturated fatty acids prevented cancer development (A549 cells of human lung adenocarcinoma) (FIG. 2). […] Therefore it was concluded that the introduction of a double bond in the cis configuration in the structure of the fatty acid is a critical factor in the prevention and treatment by fatty acids of cancer development.

[2] = Rat obesity induced by cafeteria diet, preventative pre-treatment (Table 3); assay type: in vivo, Wistar Kyoto rats; conditions: 300 mg/kg oral, after two weeks on cafeteria diet; obese control 308 ± 17, lean control 280 ± 16; * lower than obese controls, ‡ indistinguishable
Method in brief: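 Groups of 6 female Wistar Kyoto rats (250-300 g) received oral pre-treatment with 300 mg/kg fatty acid or vehicle during 2 weeks on standard diet. Dosing continued for two further weeks on cafeteria diet, with lean and obese vehicle controls. Body-weight gain was the read-out.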

IL-6 = assay: Proinflammatory cytokines in U937 monocytes stimulated with LPS; assay type: cell-based, human; conditions: 250 μM, 72 h; Control 24 ± 3, LPS 1072 ± 4
Method: (§1) FIG. 18. Levels of interleukin 6 IL-6 (left bar) and […] TNF-α (right bar) in human monocytes in the absence (control) or presence of a pro-inflammatory treatment with bacterial lipopolysaccharide (LPS). Cells treated with LPS were cultured in the absence (Control+LPS) or presence of various fatty acids shown on the horizontal axis.
(§2) In an additional study on the release of various proinflammatory cytokines (IL-1b, IL-6, IL-8, IL-10) and TNF-α in U937 monocytes stimulated with bacterial lipopolysaccharide (LPS), a marked reduction in the levels of these molecules was observed after treatments with OHHD at a concentration of 250 μM and 72 h incubation (Table 4). The effect of the α-derivatives of cis-monounsaturated fatty acids (250 μM, 6 h) on the activity and expression of the COX-1 and COX-2 cyclooxygenases was investigated in the same system.

TNF-α = assay: as above; assay type: cell-based, human; conditions: 250 μM, 72 h; Control 15 ± 6, LPS 1504 ± 7
Method: as §1, §2

IL-10 = assay: as above; assay type: cell-based, human; conditions: 250 μM, 72 h; Control 32 ± 1, LPS 315 ± 9
Method: as §2

IL-1b = assay: as above; assay type: cell-based, human; conditions: 250 μM, 72 h; Control 12 ± 2, LPS 132 ± 2
Method: as §2

IL-8 = assay: as above; assay type: cell-based, human; conditions: 250 μM, 72 h; Control 345 ± 7, LPS 967 ± 8
Method: as §2

[3] = molecular target: T1, cyclooxygenases-1 (COX-1) (Homo sapiens, UniProt P23219); assay: COX-1 activity in U937 differentiated monocytes (Cayman COX-1 inhibitor screening system); assay type: cell-based; conditions: 250 μM, 6 hours; compared with fatty acids not of Formula I, p<0.05
T1 construct: endogenous in cells; host or cells: U937 differentiated monocytes
T1 sequence (P23219 24-599): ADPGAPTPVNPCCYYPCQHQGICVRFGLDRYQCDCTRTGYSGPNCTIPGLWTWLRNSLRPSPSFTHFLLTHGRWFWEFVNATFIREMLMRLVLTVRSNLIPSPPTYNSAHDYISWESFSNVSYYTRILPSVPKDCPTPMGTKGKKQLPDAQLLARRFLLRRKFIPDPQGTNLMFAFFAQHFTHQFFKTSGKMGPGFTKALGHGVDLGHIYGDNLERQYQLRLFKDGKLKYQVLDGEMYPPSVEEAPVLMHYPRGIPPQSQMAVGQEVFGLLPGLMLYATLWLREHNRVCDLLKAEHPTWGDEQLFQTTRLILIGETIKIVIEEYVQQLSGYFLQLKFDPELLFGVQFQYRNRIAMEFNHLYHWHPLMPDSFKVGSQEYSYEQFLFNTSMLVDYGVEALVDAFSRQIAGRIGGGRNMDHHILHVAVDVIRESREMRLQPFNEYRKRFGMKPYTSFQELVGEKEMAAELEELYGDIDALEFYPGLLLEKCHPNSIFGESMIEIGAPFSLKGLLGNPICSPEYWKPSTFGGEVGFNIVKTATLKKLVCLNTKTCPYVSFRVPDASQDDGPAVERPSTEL
Method: FIG. 19A. Effect of various fatty acids in the inhibition of the activity of cyclooxygenases-1 (COX-1) (Cayman COX-1 inhibitor screening system). […] Cell cultures (U937 differentiated monocytes) were treated with the fatty acids of the invention (250 μM, 6 hours).
as §2

cyclooxygenase-2 (COX-2) = assay: Cellular concentration of COX-2 in U937 differentiated monocytes (immunoblot); assay type: cell-based, human; conditions: 250 μM, 6 hours; compared with fatty acids not of Formula I, p<0.05
Method: FIG. 19B. Effect of various fatty acids in the inhibition (concentration of protein) of cyclooxygenase-2 (immunoblot of COX-2). […] Cell cultures (U937 differentiated monocytes) were treated with the fatty acids of the invention (250 μM, 6 hours).
as §2

CCCCCC/C=C\CCCCCCC(O)C(=O)O (stereo not drawn) [OHHD, α-Hydroxy-cis-Δ9-hexadecenoic]
tumour volume (prevention of tumour development) [1]: more significant effect
Final weight [2]: 275 ± 19* g
IL-6, LPS + OHHD (IL-6): 68 ± 8 pg/mL
TNF-α, LPS + OHHD (TNF-α): 65 ± 9 pg/mL
IL-10, LPS + OHHD (IL-10): 53 ± 3 pg/mL
IL-1b, LPS + OHHD (IL-1b): 41 ± 5 pg/mL
IL-8, LPS + OHHD (IL-8): 529 ± 7 pg/mL
inhibition of COX-1 activity (% of control) [3]: more significant effect
cellular concentration of COX-2 (% of control) (cyclooxygenase-2 (COX-2)): more significant effect

From US9730906B2, “α-derivatives of cis-monounsaturated fatty acids for use as medicines” (UNIVERSITAT DE LES ILLES BALEARS, priority 2008, dated 2017)
